We go through 7 compounds from patent publication US12528947B2, “Infrared-absorbing composition, film, optical filter, solid-state imaging element, image display device, and infrared sensor” (FUJIFILM Corporation, priority 2020, dated 2026).

Series [1] in a line: Evaluation of dissolved amount of infrared-absorbing coloring agent. The series is classed as physicochemical. To be noted: 25° C., after stirring for 1 hour. As to the method: The infrared-absorbing coloring agent shown in the tables below was added to a measurement solvent shown in the tables below, while the temperature was adjusted to 25° C. under atmospheric pressure. After stirring for 1 hour, the dissolved amount of each infrared-absorbing coloring agent in the measurement solvent at 25° C. was determined. The dissolved amount of the infrared-absorbing coloring agent was evaluated based on the following standard. A case of A was judged to be a good solvent, and a case of B was judged to be a poor solvent. The infrared-absorbing coloring agent exists as particles in the poor solvent. PGMEA described in the column of measurement solvent in the following tables is an abbreviation for propylene glycol monomethyl ether acetate. • A: dissolved amount of the infrared-absorbing coloring agent in 100 g of the measurement solvent at 25° C. was 0.1 g or more. • B: dissolved amount of the infrared-absorbing coloring agent in 100 g of the measurement solvent at 25° C. was less than 0.1 g.

The nature of series [2]: Maximal absorption wavelength of infrared-absorbing coloring agent in good solvent. The format is physicochemical. The following applies: coloring agent solution in dimethyl sulfoxide; for λmax: largest absorbance in 650 to 1500 nm; for Number of maximal absorption wavelengths: wavelength range 650 to 1500 nm. As to the method: Each infrared-absorbing coloring agent was dissolved in a solvent (good solvent) descried in the following table to prepare a coloring agent solution having a concentration of infrared-absorbing coloring agent of […], and absorption spectrum of the coloring agent solution was measured. The number of maximal absorption wavelengths existing in a wavelength range of 650 to 1500 nm and the wavelength (max) indicating the value having the largest absorbance are shown in the following table.

Turning to `Cc1ccccc1-c1c2/c(=C(\C#N)c3nc4ccc(Br)cc4o3)n(B(c3ccccc3)c3ccccc3)c(-c3ccc(OCCCS(=O)(=O)O)cc3)c2/c(=C(\C#N)c2nc3ccc(Br)cc3o2)n1B(c1ccccc1)c1ccccc1` [Example A-7], the Solubility entry in series [1] (Cyclopentanone) was “B (dissolved amount of the infrared-absorbing coloring agent in 100 g of the measurement solvent at 25 °C was less than 0.1 g)”; in series [1] (Dimethyl sulfoxide), “A (dissolved amount of the infrared-absorbing coloring agent in 100 g of the measurement solvent at 25 °C was 0.1 g or more)”; in series [1] (PGMEA), “B (dissolved amount of the infrared-absorbing coloring agent in 100 g of the measurement solvent at 25 °C was less than 0.1 g)”; in series [1] (Water), “B (dissolved amount of the infrared-absorbing coloring agent in 100 g of the measurement solvent at 25 °C was less than 0.1 g)”. In series [2], this compound returned a λmax of 747 nm. Also, in series [2], the “Number of maximal absorption wavelengths” value was 2.
Take `Cc1ccccc1-c1c2/c(=C(\C#N)c3nc4ccccc4s3)n(B(c3ccccc3)c3ccccc3)c(-c3ccc(OCCCCS(=O)(=O)O)cc3)c2/c(=C(\C#N)c2nc3ccccc3s2)n1B(c1ccccc1)c1ccccc1` [Example A-4]: the Solubility result is “B (dissolved amount of the infrared-absorbing coloring agent in 100 g of the measurement solvent at 25 °C was less than 0.1 g)” in series [1] (Cyclopentanone), “A (dissolved amount of the infrared-absorbing coloring agent in 100 g of the measurement solvent at 25 °C was 0.1 g or more)” in series [1] (Dimethyl sulfoxide), “B (dissolved amount of the infrared-absorbing coloring agent in 100 g of the measurement solvent at 25 °C was less than 0.1 g)” in series [1] (PGMEA) and “B (dissolved amount of the infrared-absorbing coloring agent in 100 g of the measurement solvent at 25 °C was less than 0.1 g)” in series [1] (Water). Further, the λmax in series [2] is reported as 779 nm. In addition, the “Number of maximal absorption wavelengths” value in series [2] was determined as 2.
For `Cc1ccccc1-c1c2/c(=C(\C#N)c3nc4ccc(Cl)cc4o3)n(B(c3ccccc3)c3ccccc3)c(-c3ccc(OCCCS(=O)(=O)O)cc3)c2/c(=C(\C#N)c2nc3ccc(Cl)cc3o2)n1B(c1ccccc1)c1ccccc1` [Example A-5], the Solubility entry in series [1] (Cyclopentanone) was “B (dissolved amount of the infrared-absorbing coloring agent in 100 g of the measurement solvent at 25 °C was less than 0.1 g)”; in series [1] (Dimethyl sulfoxide), “A (dissolved amount of the infrared-absorbing coloring agent in 100 g of the measurement solvent at 25 °C was 0.1 g or more)”; in series [1] (PGMEA) it was “B (dissolved amount of the infrared-absorbing coloring agent in 100 g of the measurement solvent at 25 °C was less than 0.1 g)”; in series [1] (Water), “B (dissolved amount of the infrared-absorbing coloring agent in 100 g of the measurement solvent at 25 °C was less than 0.1 g)”. The λmax in series [2] is on record as 746 nm. Moreover, the “Number of maximal absorption wavelengths” value in series [2] is listed as 2.
As to `COc1ccc2nc(/C(C#N)=c3/c4c(-c5ccccc5C)n(B(c5ccccc5)c5ccccc5)/c(=C(/C#N)c5nc6ccc(OC)cc6s5)c4c(-c4ccc(OCCCCS(=O)(=O)O)cc4)n3B(c3ccccc3)c3ccccc3)sc2c1` [Example A-6], the Solubility result in series [1] (Cyclopentanone) is “B (dissolved amount of the infrared-absorbing coloring agent in 100 g of the measurement solvent at 25 °C was less than 0.1 g)”; in series [1] (Dimethyl sulfoxide) it was “A (dissolved amount of the infrared-absorbing coloring agent in 100 g of the measurement solvent at 25 °C was 0.1 g or more)”; in series [1] (PGMEA), “B (dissolved amount of the infrared-absorbing coloring agent in 100 g of the measurement solvent at 25 °C was less than 0.1 g)”; in series [1] (Water) it was “B (dissolved amount of the infrared-absorbing coloring agent in 100 g of the measurement solvent at 25 °C was less than 0.1 g)”. Also, in series [2], the λmax was 801 nm. Also, the “Number of maximal absorption wavelengths” value in series [2] came out at 2.
As to `Cc1ccccc1-c1c2/c(=C(\C#N)c3nc4ccccc4s3)n(B(c3ccccc3)c3ccccc3)c(-c3ccc(OCCCN(C)C)cc3)c2/c(=C(\C#N)c2nc3ccccc3s2)n1B(c1ccccc1)c1ccccc1` [Example A-3], the Solubility entry in series [1] (Cyclopentanone) was “B (dissolved amount of the infrared-absorbing coloring agent in 100 g of the measurement solvent at 25 °C was less than 0.1 g)”; in series [1] (Dimethyl sulfoxide) it was “A (dissolved amount of the infrared-absorbing coloring agent in 100 g of the measurement solvent at 25 °C was 0.1 g or more)”; in series [1] (PGMEA) it was “B (dissolved amount of the infrared-absorbing coloring agent in 100 g of the measurement solvent at 25 °C was less than 0.1 g)”; in series [1] (Water) it was “B (dissolved amount of the infrared-absorbing coloring agent in 100 g of the measurement solvent at 25 °C was less than 0.1 g)”. Also, the λmax in series [2] stood at 780 nm. The “Number of maximal absorption wavelengths” value in series [2] is 2.
Regarding `Cc1ccccc1-c1c2/c(=C(\C#N)c3ccc4ccccc4n3)n(B(c3ccccc3)c3ccccc3)c(-c3ccc(OCCO)cc3)c2/c(=C(\C#N)c2ccc3ccccc3n2)n1B(c1ccccc1)c1ccccc1` [Comparative coloring agent 1, reference compound], the Solubility entry in series [1] (Cyclopentanone) was “B (dissolved amount of the infrared-absorbing coloring agent in 100 g of the measurement solvent at 25 °C was less than 0.1 g)”; in series [1] (Dimethyl sulfoxide), “A (dissolved amount of the infrared-absorbing coloring agent in 100 g of the measurement solvent at 25 °C was 0.1 g or more)”; in series [1] (PGMEA), “B (dissolved amount of the infrared-absorbing coloring agent in 100 g of the measurement solvent at 25 °C was less than 0.1 g)”; in series [1] (Water) it was “B (dissolved amount of the infrared-absorbing coloring agent in 100 g of the measurement solvent at 25 °C was less than 0.1 g)”. The compound also showed a λmax in series [2] of 819 nm. In series [2], the “Number of maximal absorption wavelengths” value stood at 2.
Regarding `Cc1ccccc1-c1c2/c(=C(\C#N)c3ccc4ccccc4n3)n(B(c3ccccc3)c3ccccc3)c(-c3ccc(OCCCCS(=O)(=O)O)cc3)c2/c(=C(\C#N)c2ccc3ccccc3n2)n1B(c1ccccc1)c1ccccc1` [Example A-1], the Solubility entry in series [1] (Cyclopentanone) is “B (dissolved amount of the infrared-absorbing coloring agent in 100 g of the measurement solvent at 25 °C was less than 0.1 g)”; in series [1] (Dimethyl sulfoxide), “A (dissolved amount of the infrared-absorbing coloring agent in 100 g of the measurement solvent at 25 °C was 0.1 g or more)”; in series [1] (PGMEA), “B (dissolved amount of the infrared-absorbing coloring agent in 100 g of the measurement solvent at 25 °C was less than 0.1 g)”; in series [1] (Water), “B (dissolved amount of the infrared-absorbing coloring agent in 100 g of the measurement solvent at 25 °C was less than 0.1 g)”. Besides, in series [2], the λmax amounted to 819 nm. The “Number of maximal absorption wavelengths” value in series [2] is 2.
